# Experiments:
# [1] = molecular target: human prostanoid EP2 receptor (Homo sapiens (Human), UniProt P43116); assay: Human prostanoid EP2 receptor cellular functional assay (cAMP, HTRF); format: cell-based; conditions: percent of control specific agonist response (10 μM PGE2)
# Description: Test 1.2: Human Prostanoid EP2 Receptor Cellular Functional Assay
# […] CHO cells expressing the recombinant human prostanoid EP2 receptor were suspended in assay medium (HBSS buffer (Invitrogen) containing 20 mM HEPES (pH7.4) and 500 μM isobutyl-methylxanthine IBMX) and plated out to yield approximately 1×10^4 cells/well in a 96-well. Following this, cells were incubated with agonists for 30 min in the presence of the test compounds. For stimulated control measurements, separate assay wells contain 10 μM PGE2 (control specific agonist). All incubations were carried out at 37° C. in a 5% CO2 atmosphere. Following incubation, the amount of cAMP in each well was determined by HTRF method. The cells are lysed and the fluorescence acceptor (D2-labeled cAMP) and fluorescence donor (anti-cAMP antibody labeled with europium cryptate) are added. After 60 min at room temperature, the fluorescence transfer is measured at λex=337 nm and λem=620 and 665 nm using a microplate reader (Rubystar, BMG).
# The cAMP concentration is determined by dividing the signal measured at 665 nm by that measured at 620 nm (ratio).
# The standard reference agonist PGE2 was tested at several concentrations to generate a concentration-response curve to determined EC50.
# Analysis and Expression of Results […]
# [2] = system: laser-induced glaucomatous monkeys; assay: Laser-induced hypertensive cynomolgus monkey, intraocular pressure; format: in vivo; conditions: 0.01% topically to glaucomatous eye once daily for 5 days
# Description: Laser-Induced Hypertensive Cynomolgus Monkey
# Ten adult female cynomolgus monkeys, each weighing 3-5 kg, in which glaucoma had been induced unilaterally by diode laser photocoagulation of the mid-trabecular meshwork, were used in this study.
# Intraocular pressure (IOP) was measured at 0 hr (before drug administration) and then hourly until 6 hrs after drug administration on one baseline day, one vehicle-treatment day, and treatment days 1, 3, and 5 with 0.01% of compound II(d).
# Compound II(d) was tested in two groups of 4 monkeys for a total of 8 monkeys. Following one baseline day (untreated) and one vehicle-treatment day (50 μl (25 μl×2), drop of vehicle to the glaucomatous eye at 9:30 (a 50 μl drop (25 μl×2) of compound (II(d)) were topically applied to the glaucomatous eye only once daily at 9:30 am for 5 consecutive days.
# Slit-lamp examination for the detection of aqueous humor flare and cells was performed in a dark room before drug administration and at 1, 3 and 5 hrs after dosing on baseline day and at the same times on treatment days 1, 3 and 5.
# Two-tailed paired and unpaired t test and the ANOVA test were used for statistical analysis.
# Sequence of human prostanoid EP2 receptor (P43116 whole entry): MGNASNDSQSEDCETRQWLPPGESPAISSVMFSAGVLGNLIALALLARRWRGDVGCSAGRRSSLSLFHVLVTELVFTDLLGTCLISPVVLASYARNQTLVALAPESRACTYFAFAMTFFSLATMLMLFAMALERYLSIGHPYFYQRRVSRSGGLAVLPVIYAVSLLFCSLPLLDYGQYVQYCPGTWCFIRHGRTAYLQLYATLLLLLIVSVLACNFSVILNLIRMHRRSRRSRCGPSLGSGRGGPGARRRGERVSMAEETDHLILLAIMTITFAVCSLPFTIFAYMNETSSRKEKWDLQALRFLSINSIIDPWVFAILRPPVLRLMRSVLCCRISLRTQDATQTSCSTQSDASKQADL
In vitro functional assay % response [1] [%],Compound,overall IOP reduction [2] [%]
124,"C[C@@H](Nc1c(F)ccc(OCC(=O)O)c1F)c1cc(-c2cccc(F)c2)ccc1F (single isomer, unassigned) [I(as) (+isomer)]",–
–,"CC(C)OC(=O)COc1ccc(F)c(NCc2cc(-c3cccc(F)c3)ccc2F)c1F [II(d), Isopropyl 2-[2,4-difluoro-3-[[2-fluoro-5-(3-fluorophenyl)phenyl]methylamino]phenoxy]acetate]",22
